Laboratory results published in the supplement of paper PMC10307832.

Tests used:
Assay in all cases: relative viability (nuclei count vs DMSO), 5 days (fraction); higher = more cells survive
Bortezomib + Palbociclib = compound: CC(C)C[C@H](NC(=O)[C@H](Cc1ccccc1)NC(=O)c1cnccn1)B(O)O [Bortezomib] + CC(=O)c1c(C)c2cnc(Nc3ccc(N4CCNCC4)cn3)nc2n(C2CCCC2)c1=O [Palbociclib] (partner 0.5 µM)
How it was run: (§1)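 For relative viability, nuclei counts in treated wells were divided by those in vehicle wells. Lung cancer cell lines had been pin-tool dosed in 1536-well plates the day after seeding and cultured for 5 days, then fixed and stained in one step (final 0.05% Triton X-100, 1% formaldehyde, 1 ug/ml Hoechst) and imaged at 4×. Doses were one drug alone or a fixed anchor-drug dose plus five library-drug doses (not always all listed) in √10 steps, and values are duplicate-plate medians.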

Bortezomib + Alpelisib = compound: CC(C)C[C@H](NC(=O)[C@H](Cc1ccccc1)NC(=O)c1cnccn1)B(O)O [Bortezomib] + Cc1nc(NC(=O)N2CCC[C@H]2C(N)=O)sc1-c1ccnc(C(C)(C)C(F)(F)F)c1 [Alpelisib] (partner 2 µM)
How it was run: as §1

[1] = compound: CC1=CC(=NN1)NC2=CC(=NC(=N2)/C=C/C3=CC=CC=C3)N4CCN(CC4)C + CS(=O)(=O)CCNCc1ccc(-c2ccc3ncnc(Nc4ccc(OCc5cccc(F)c5)c(Cl)c4)c3c2)o1 [Lapatinib] (partner 2 µM)
How it was run: as §1

Obatoclax + Phenformin = compound: COC1=CC(c2cc3ccccc3[nH]2)=N/C1=C\c1[nH]c(C)cc1C [Obatoclax] + N=C(N)NC(=N)NCCc1ccccc1 [Phenformin] (partner 250 µM)
How it was run: as §1

Row | Cell Line | relative viability (Bortezomib + Palbociclib; first compound 0.0002 µM) | relative viability (Bortezomib + Palbociclib; first compound 0.000632 µM) | relative viability (Bortezomib + Palbociclib; first compound 0.002 µM) | relative viability (Bortezomib + Palbociclib; first compound 0.006325 µM) | relative viability (Bortezomib + Palbociclib; first compound 0.02 µM) | relative viability (Bortezomib + Alpelisib; first compound 0.0002 µM) | relative viability (Bortezomib + Alpelisib; first compound 0.000632 µM) | relative viability (Bortezomib + Alpelisib; first compound 0.002 µM) | relative viability (Bortezomib + Alpelisib; first compound 0.006325 µM) | relative viability (Bortezomib + Alpelisib; first compound 0.02 µM) | relative viability ([1]; first compound 0.08 µM) | relative viability ([1]; first compound 0.253 µM) | relative viability ([1]; first compound 0.8 µM) | relative viability ([1]; first compound 2.53 µM) | relative viability ([1]; first compound 8 µM) | relative viability (Obatoclax + Phenformin; first compound 0.01 µM) | relative viability (Obatoclax + Phenformin; first compound 0.03162 µM) | relative viability (Obatoclax + Phenformin; first compound 0.1 µM) | relative viability (Obatoclax + Phenformin; first compound 0.3162 µM) | relative viability (Obatoclax + Phenformin; first compound 1 µM)
1 | NCI-H1666 | 0.62 | 0.699 | 0.608 | 0.569 | 0.472 | 1.04 | 0.98 | 1.04 | 0.232 | 0.217 | 0.738 | 0.549 | 0.669 | 0.416 | 0.131 | 0.576 | 0.542 | 0.571 | 0.494 | 0.421
2 | NCI-H1437 | 0.305 | 0.35 | 0.319 | 0.135 | 0.118 | 0.951 | 0.975 | 1.05 | 0.0854 | 0.0875 | 0.853 | 0.909 | 0.833 | 0.347 | 0.105 | 0.242 | 0.317 | 0.314 | 0.296 | 0.246
3 | NCI-H1944 | 0.315 | 0.309 | 0.336 | 0.21 | 0.15 | 0.807 | 0.79 | 0.764 | 0.84 | 0.154 | 0.837 | 0.931 | 0.865 | 0.655 | 0.29 | 0.215 | 0.202 | 0.149 | 0.201 | 0.18
4 | SK-MES-1 | 0.317 | 0.321 | 0.296 | 0.159 | 0.179 | 0.86 | 0.723 | 0.825 | 0.475 | 0.206 | 0.44 | 0.52 | 0.453 | 0.329 | 0.146 | 0.642 | 0.704 | 0.558 | 0.361 | 0.273
5 | NCI-H1792 | 0.628 | 0.593 | 0.494 | 0.637 | 0.375 | 0.576 | 0.646 | 0.579 | 0.714 | 0.319 | 0.862 | 0.861 | 0.892 | 0.841 | 0.145 | 0.371 |  |  | 0.176 | 0.0627
6 | NCI-H1355 | 0.394 | 0.4 | 0.398 | 0.24 | 0.138 | 0.826 | 0.783 | 0.685 | 0.137 | 0.126 | 1.11 | 1.03 | 0.944 | 0.645 | 0.422 | 0.456 | 0.458 | 0.431 | 0.44 | 0.397
7 | SK-LU-1 | 0.387 | 0.361 | 0.359 | 0.279 | 0.158 | 1.09 | 0.963 | 0.551 | 0.154 | 0.149 | 0.861 | 0.959 | 0.699 | 0.386 | 0.116 | 0.587 | 0.507 | 0.414 | 0.246 | 0.244
8 | NCI-H2228 | 0.587 | 0.843 | 0.72 | 0.0946 | 0.0943 | 0.796 | 0.748 | 0.411 | 0.111 | 0.102 | 1.16 | 0.85 | 0.685 | 0.103 | 0.0435 | 0.339 | 0.387 | 0.3 | 0.285 | 0.159
9 | NCI-H1793 | 0.336 |  | 0.375 | 0.205 | 0.143 | 0.668 | 0.589 | 0.776 | 0.475 | 0.127 | 0.528 | 0.566 | 0.656 | 0.1 | 0.0979 | 0.404 | 0.32 | 0.377 | 0.345 | 0.332
10 | NCI-H2347 | 0.401 | 0.497 | 0.406 | 0.292 | 0.231 | 0.924 | 0.968 | 0.706 | 0.248 | 0.278 | 0.908 | 0.95 | 1.04 | 0.938 | 0.99 | 0.496 | 0.366 |  | 0.506 | 0.517
11 | A-427 | 0.508 | 0.469 | 0.53 | 0.272 | 0.169 | 0.991 | 1.03 | 1.05 | 1.11 | 0.0762 | 1.22 | 1.05 | 0.957 | 0.542 | 0.513 | 0.339 | 0.342 | 0.32 | 0.287 | 0.165
12 | HCC-366 | 0.352 | 0.319 | 0.372 | 0.0727 | 0.0268 | 0.467 | 0.316 | 0.409 | 0.339 | 0.0134 | 0.928 | 1.13 | 0.996 | 0.0251 | 0.0162 | 0.581 | 0.565 | 0.657 | 0.628 | 0.478
13 | HCC-78 | 0.517 | 0.531 | 0.444 | 0.451 | 0.405 | 0.331 | 0.359 | 0.258 | 0.136 | 0.148 | 0.673 | 1.04 | 0.87 | 0.68 | 1.27 | 0.8 | 0.634 | 0.868 | 0.642 | 0.67
14 | PC-14 | 0.53 | 0.506 | 0.412 | 0.045 | 0.052 | 0.977 | 0.909 | 1.01 | 0.325 | 0.0573 | 0.334 | 0.374 | 0.278 | 0.248 | 0.0886 | 0.551 | 0.612 | 0.308 | 0.425 | 0.281
15 | NCI-H2087 | 0.218 | 0.246 | 0.156 | 0.0525 | 0.036 | 0.953 | 1.05 | 0.635 | 0.0664 | 0.0561 | 1.01 | 1.02 | 1.03 | 0.582 | 0.188 | 0.423 | 0.372 | 0.513 | 0.344 | 0.193
16 | HOP-62 | 0.437 | 0.492 | 0.307 | 0.0611 | 0.0516 | 0.938 | 1.08 | 0.33 | 0.0928 | 0.067 | 1.06 | 0.973 | 0.956 | 0.558 | 0.307 | 0.693 | 0.699 | 0.604 | 0.662 | 0.404
